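All cell lines were grown in 96-well plates and treated with compound for 48 hours. TGI: concentration producing complete growth inhibition.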
Key:
Assay in all cases: NCI tumour cell line growth inhibition, 48 h
[1] = test system: PC-3 prostate
[2] = test system: COLO 205 colon
[3] = test system: T-47D breast
[4] = test system: HCT-116 colon
[5] = test system: CCRF-CEM leukemia
[6] = test system: SW-620 colon
[7] = test system: SF-539 CNS
[8] = test system: SNB-75 CNS
[9] = test system: SK-OV-3 ovarian
[10] = test system: NCI/ADR-RES ovarian
[11] = test system: MCF7 breast
[12] = test system: RXF 393 renal
[13] = test system: BT-549 breast
[14] = test system: U251 CNS
[15] = test system: CAKI-1 renal
[16] = test system: HCT-15 colon
[17] = test system: NCI-H522 lung

| SMILES | TGI [1] [µM] | TGI [2] [µM] | TGI [3] [µM] | TGI [4] [µM] | TGI [5] [µM] | TGI [6] [µM] | TGI [7] [µM] | TGI [8] [µM] | TGI [9] [µM] | TGI [10] [µM] | TGI [11] [µM] | TGI [12] [µM] | TGI [13] [µM] | TGI [14] [µM] | TGI [15] [µM] | TGI [16] [µM] | TGI [17] [µM] |
| --- | --- | --- | --- | --- | --- | --- | --- | --- | --- | --- | --- | --- | --- | --- | --- | --- | --- |
| CCOC(=O)/C=C(\C(=O)OCC)n1cc(C)c(=O)n(Cc2cn(COCCOC(C)=O)nn2)c1=O | 38.6 | 11.1 | > 100 | 80.4 | 5.95 | > 100 | 9.74 | 36 | > 100 | 67.4 | 22 | 93.2 | 24.3 | 37.5 | 7.05 | 55.4 |  |
| CCCCCCCCCCCCCC/C(C(=O)O)=C(\C)C(=O)O | > 100 | > 100 | > 100 | > 100 | > 100 | > 100 | > 100 | > 100 | > 100 | > 100 | > 100 | > 100 | > 100 | > 100 |  | > 100 | > 100 |
| C/C(=N\NC(N)=S)C(CN1CCCCC1)C(C1=C(O)c2ccccc2OC1)c1ccccc1 (centres undefined) | > 100 | > 100 | > 100 | > 100 | > 100 | > 100 | > 100 | > 100 | > 100 | > 100 | > 100 | > 100 | > 100 | > 100 | > 100 | > 100 | > 100 |
| COC(OC)[C@@H]1OC[C@H](n2ccc(=O)[nH]c2=O)[C@H]1O | > 100 | > 100 | > 100 | > 100 | > 100 | > 100 | > 100 | > 100 | > 100 | > 100 | > 100 | > 100 | > 100 | > 100 | > 100 | > 100 |  |
| CC(C)C(=O)/C=C/c1ccc(Cl)cc1Cl | 32.8 | 32.7 | 25.7 | 10 | 50.7 | 7.92 | 34 | 27.7 | 33.7 | 54.6 | 14.2 | 22.2 | 14.9 | 25.2 | 24.8 | 25.2 | 22.8 |
| N#CC(C#N)[C@@H]1CCC=C(Sc2ccccc2)[C@H]1Sc1ccccc1 | 17.4 | 4.86 | 7.71 | 8.4 | 7.26 |  | 4.6 | 17.9 | 16.3 | 8.37 | 14.1 | 4.84 | 11.9 | 23.6 | 8.29 | 5.66 | 6.01 |
| COC(=O)C1=C(C(=O)OC)N(c2ccncc2)C(c2ccco2)=CC1c1ccccc1[N+](=O)[O-] (centres undefined) | 31 | 10.2 | 12.9 | 2.7 | 7.43 |  | 3.6 | 16.3 | 33.1 | 56.1 | 7.06 | 10.6 | 25.4 | 10.7 | 31.6 | 5.58 | 5.06 |

Source: PubChem BioAssay (NCI)
